The results in this text go back to paper PMC4764904 (Scientific Reports, 2016).

Marks after values point to notes of the source that are not given here. Where a SMILES comes first, the peptide text is derived from it. Where no end group is shown, it is not given here. [ ]: non-standard residue; d: D form. pGlu = O=C1CC[C@@H](C(=O)O)N1

A short description of data set [1]: Peptide stability in FBS by residual IP3 production. Format: in vitro ADME, bovine. Conditions: for Half-life activity (h) in FBS: peptide 1 μM in 100% FBS, 37 °C, 0, 3, 6, 12, 24, 48, 72 h, residual activity read as IP3 production ([3H]-inositol) in HEK293 cells expressing GALR2, mean ± S.E., at least three independent experiments. How it is done: (§1) To investigate the effects of the modifications on proteolytic susceptibility, the functional activity of peptides that were incubated in 100% serum at 37 °C for 0, 3, 6, 12, 24, 48, and 72 h was determined via inositol 1,4,5-triphosphate (IP3) production in GALR2-expressing cells (Fig. 4A–C and Table 3). […] In addition, dAla4 and dGln14 substitutions contribute to longer longevity of the peptide in serum. In an additional experiment, we examined the degradation rates of the Qu mutant, as well as the Qu mutant with an N-terminal modification and/or dAla4 and dGln14 substitutions.
(§2) Figure 4 Stability of SPX mutants in the presence of FBS (A) Qu analogs in FBS (B) and human serum (C). Potency of Qu mutants toward GALR2 (D) and GALR3 (E). For stability of SPX mutants, peptides (1 μM) were incubated in serum for 0, 3, 6, 12, 24, 48, and 72 hrs. The remaining activities of the peptides were determined by measuring IP3 production by HEK293 cells that express GALR2 after the indicated times. IP3 production was expressed as percent change, where 100% indicates IP3 production by WT SPX incubated in FBS or human serum for 0 h. For potency of Qu mutants toward GALR2 and GALR3, the SRE-luc reporter vector and plasmid containing human GALR2 or GALR3 were transfected into HEK293 cells that stably expressed Gqi protein. Cells were then treated with increasing concentrations of mutant peptides, and the receptor activities were determined using the SRE-luc reporter system.
(§3) To evaluate the stability of SPX and its analogs in FBS or human serum, peptides were incubated at an initial concentration of 1 μM in 100% serum at 37 °C for 0, 3, 6, 12, 24, 48, and 72 hours. Residual peptide activity was then assessed by measuring IP3 in HEK293 cells expressing GALR2. For the IP3 assay, cells were seeded in 12-well plates at a density of 2.5 × 10^5 cells per well, and then the next day, cells were transiently transfected with 1 μg/well of plasmid containing GALR2 using the Lipofectamine 2000 (Invitrogen) transfection reagent. The day following transfection, cells were incubated in M199 media containing 1% FBS, 1% L-glutamine, 1% penicillin/streptomycin, and 1 μCi/well of myo-^3H inositol for 20 h. After a 30-min incubation in buffer A (140 mM NaCl, 20 mM Hepes, 4 mM KCl, 8 mM D-glucose, 1 mM MgCl2, 1 mM CaCl2, 1 mg/ml free fatty acid bovine serum albumin (BSA), and 10 mM LiCl at pH 7.2), cells were treated with the agonist for 40 min at 37 °C. Media was removed, and the reactions were terminated by addition of 1 ml of 10 mM cold formic acid to each well. The plates were stored at 4 °C for 30 min, and the extracts were then transferred into 6-ml plastic tubes containing 500 μl AG1–8X anion exchange columns (BIO-RAD). The tubes were gently mixed with a vortexer, and the supernatants were removed by aspiration. Two washes with 1 ml of distilled water were performed followed by two additional washes with 60 mM ammonium formate/5mM sodium tetraborate. Tritiated inositol was separated from the column by elution with 1 ml of 1 M ammonium formate/0.1 M formic acid, and 800 μl from the elution were taken from each tube and transferred into 6-ml scintillation vials. Then, 2 ml of scintillation cocktail solution (Ultima Gold^TM, Perkin Elmer, Waltham MA, USA) was added to each sample. The radioactivity of [^3H]-myo-inositol samples was measured using a TRI carb 3100TR liquid scintillation analyzer (Packard).

Data set [2] in a line: Peptide stability in human serum by residual IP3 production. To be noted: peptide 1 μM in 100% human serum, 37 °C, 0, 3, 6, 12, 24, 48, 72 h; residual activity read as IP3 production ([3H]-inositol) in HEK293 cells expressing GALR2; mean ± S.E., at least three independent experiments. The format is in vitro ADME. How it is done:
as §1, §2, §3

Another data set deals with T1, human GALR2 (Homo sapiens, UniProt O43603).
T1 construct: host or cells: HEK293 cells stably expressing Gαqi
T1 sequence (O43603 1-387): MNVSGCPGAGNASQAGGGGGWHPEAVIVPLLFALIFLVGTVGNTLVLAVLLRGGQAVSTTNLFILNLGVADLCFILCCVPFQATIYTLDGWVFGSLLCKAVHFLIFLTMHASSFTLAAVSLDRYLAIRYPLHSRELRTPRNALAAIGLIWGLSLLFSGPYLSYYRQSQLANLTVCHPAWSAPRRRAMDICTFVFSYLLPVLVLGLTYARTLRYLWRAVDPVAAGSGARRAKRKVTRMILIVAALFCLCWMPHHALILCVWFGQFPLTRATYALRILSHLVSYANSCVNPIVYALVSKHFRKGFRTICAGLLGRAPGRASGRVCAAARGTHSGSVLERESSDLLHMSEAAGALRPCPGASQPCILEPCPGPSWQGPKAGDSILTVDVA
Nature of the data set: SRE-luc reporter assay, GALR2.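 Further: luciferase activity read in cell lysates after exposure to rising peptide concentrations, EC50 being the agonist level giving half-maximal stimulation from a sigmoidal nonlinear regression fit.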 To be noted: HEK293-Gqi cells transfected with SRE-luc and human GALR2; 6 h ligand treatment; mean ± S.E. of at least three independent experiments; NM = not measurable; read-out: GALR2 EC50. The format is cell-based. (A reporter such as luciferase makes a cellular process visible.)

Another data set has as its target T2, human GALR3 (Homo sapiens, UniProt O60755).
T2 construct: host or cells: HEK293 cells stably expressing Gαqi
T2 sequence (O60755 1-368): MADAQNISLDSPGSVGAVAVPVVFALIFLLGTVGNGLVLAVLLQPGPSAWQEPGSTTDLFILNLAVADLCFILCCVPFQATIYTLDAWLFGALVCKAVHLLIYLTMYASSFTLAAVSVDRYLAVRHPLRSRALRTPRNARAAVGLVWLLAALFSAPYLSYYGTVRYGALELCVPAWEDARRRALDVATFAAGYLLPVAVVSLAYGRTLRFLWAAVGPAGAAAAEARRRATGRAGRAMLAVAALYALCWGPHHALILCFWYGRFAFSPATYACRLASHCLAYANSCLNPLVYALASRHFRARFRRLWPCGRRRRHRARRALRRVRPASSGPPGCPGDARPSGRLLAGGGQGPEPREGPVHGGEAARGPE
Briefly: SRE-luc reporter assay, GALR3.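 Further: luciferase activity read in cell lysates across rising peptide concentrations, EC50 being the agonist concentration giving half-maximal stimulation from a sigmoidal nonlinear fit, Gαqi routing Gi-coupled receptor signaling through Gq.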 Format: cell-based. Conditions: HEK293-Gqi cells transfected with SRE-luc and human GALR3; 6 h ligand treatment; mean ± S.E. of at least three independent experiments; NM = not measurable; read-out: GALR3 EC50.

Protocol for human GALR2: (§4) The generated mutant SPX peptides were incubated with cells expressing GALR2 and GALR3. […] The activities of the receptors were traced using the serum-response element-driven luciferase (SRE-luc) assay system.
(§5) The SRE-luc reporter vector and plasmid containing human GALR1, GALR2, or GALR3 were transfected into HEK293 cells that stably expressed Gqi protein. Cells were then treated with increasing concentrations of mutant peptides, and the receptor activities were determined using the SRE-luc reporter system.
(§6) HEK293 cells stably expressing Gαqi, which mediates Gαi-coupled receptor activation by stimulating Gαq-dependent signaling pathways[59], were maintained in Dulbecco’s modified Eagle’s medium (DMEM) supplemented with 10% FBS, 100 U/ml penicillin G, and 100 μg/ml streptomycin (Invitrogen). Cells were seeded in 48-well plates at a density of 2 × 10^4 cells per well, one day before transfection. A mixture containing 75 ng of the SRE-luc reporter construct, 75 ng of expression plasmid, and 2 μl of Effectene reagent (Qiagen, Chatsworth, CA, USA) was prepared and added to each well according to the manufacturer’s instructions. Cells were then maintained in serum-free DMEM for 16–18 h before treatment with the ligands. Approximately 48 h after transfection, cells were treated with the respective ligands for 6 h. Cells were lysed by the addition of 100 μl lysis buffer. The luciferase activity in 50 μl of cell extract was determined by a luciferase assay system according to the standard protocol for the Synergy 2 Multi-Mode Microplate Reader (BioTek, Winooski, VT, USA).
(§7) For in vitro studies data analysis was performed by nonlinear regression with a sigmoidal dose-response. The agonist concentrations that induced half-maximal stimulation (EC50) or half-maximal inhibition of binding (IC50) were calculated with GraphPad PRISM4 software (GraphPad Software Inc., San Diego, CA, USA). […] All data are presented as mean ± S.E. of at least three independent experiments and a P value of P < 0.05 was considered statistically significant.
Protocol for human GALR3: as §4, §5, §6, §7

In the case of `CC(C)C[C@H](NC(=O)[C@H](C)NC(=O)[C@H](C)NC(=O)[C@H](CC(N)=O)NC(=O)[C@@H]1CCCN1C(=O)[C@@H](NC(=O)[C@H](Cc1c[nH]c2ccccc12)NC(=O)[C@H](N)CC(N)=O)[C@@H](C)O)C(=O)N[C@@H](Cc1ccc(O)cc1)C(=O)N[C@@H](CC(C)C)C(=O)N[C@@H](Cc1ccccc1)C(=O)NCC(=O)N1CCC[C@H]1C(=O)N[C@@H](CCC(N)=O)C(N)=O` [dN1-Qu] (H-[dN]WTPNAALYLFGPQ-NH2), the “Half-life activity (h) in FBS” value in data set [1] is reported as 4.2 ± 0.1 ^a h. For the same compound, in data set [2], the “Half-life activity (h) in Human Serum” value is reported as 2.9 ± 0.1 ^a h.

By EC50 is commonly meant the midpoint of the concentration-response curve. Take `CSCC[C@H](NC(=O)[C@H](C)NC(=O)[C@H](CCC(N)=O)NC(=O)[C@@H]1CCCN1C(=O)[C@@H](NC(=O)[C@H](Cc1c[nH]c2ccccc12)NC(=O)[C@@H](N)CC(N)=O)[C@@H](C)O)C(=O)N[C@@H](CC(C)C)C(=O)N[C@@H](Cc1ccc(O)cc1)C(=O)N[C@@H](CC(C)C)C(=O)N[C@@H](CCCCN)C(=O)NCC(=O)N[C@@H](C)C(=O)N[C@H](CCC(N)=O)C(N)=O` [dQa14]: the half-maximal effective concentration (EC50) at human GALR2 was 77.6 ± 16 nM; on human GALR3 it was 324 ± 66.6 nM. In addition, the “Half-life activity (h) in FBS” value in data set [1] is 5.6 ± 0.2 ^a h.

`CSCC[C@H](NC(=O)[C@H](C)NC(=O)[C@H](CCC(N)=O)NC(=O)[C@@H]1CCCN1C(=O)[C@@H](NC(=O)[C@H](Cc1c[nH]c2ccccc12)NC(=O)[C@H](CC(N)=O)NC(C)=O)[C@@H](C)O)C(=O)N[C@@H](CC(C)C)C(=O)N[C@@H](Cc1ccc(O)cc1)C(=O)N[C@@H](CC(C)C)C(=O)N[C@@H](CCCCN)C(=O)NCC(=O)N[C@@H](C)C(=O)N[C@@H](CCC(N)=O)C(N)=O` [Ac-N1]: the EC50 on human GALR2 came out at 58.9 ± 11 nM; on human GALR3, 81.3 ± 16.7 nM. For the same compound, the “Half-life activity (h) in FBS” value in data set [1] is on record as 8.7 ± 0.6 ^a h.

For `CSCC[C@H](NC(=O)[C@H](C)NC(=O)[C@H](CCC(N)=O)NC(=O)[C@@H]1CCCN1C(=O)[C@@H](NC(=O)[C@H](Cc1c[nH]c2ccccc12)NC(=O)[C@@H](N)CC(N)=O)[C@@H](C)O)C(=O)N[C@@H](CC(C)C)C(=O)N[C@@H](Cc1ccc(O)cc1)C(=O)N[C@@H](CC(C)C)C(=O)N[C@@H](CCCCN)C(=O)NCC(=O)N[C@@H](C)C(=O)N[C@@H](CCC(N)=O)C(N)=O` [WT, spexin, reference compound], the figures for the 50% effective concentration (EC50) on human GALR2 and at human GALR3 were 45.7 ± 5.9 nM and 112 ± 14.5 nM, respectively. Also, the “Initial activity abolished after incubation in FBS” value in data set [1] (12-h incubation in 100% FBS, 37 °C, peptide 1 μM, IP3 production in GALR2-expressing cells) is 80%. Moreover, the “Half-life activity (h) in FBS” value in data set [1] was 4.1 ± 0.5 h.

As for `CSCC[C@H](NC(=O)[C@H](C)NC(=O)[C@H](CCC(N)=O)NC(=O)[C@@H]1CCCN1C(=O)[C@@H](NC(=O)[C@H](Cc1c[nH]c2ccccc12)NC(=O)[C@H](N)CC(N)=O)[C@@H](C)O)C(=O)N[C@@H](CC(C)C)C(=O)N[C@@H](Cc1ccc(O)cc1)C(=O)N[C@@H](CC(C)C)C(=O)N[C@@H](CCCCN)C(=O)NCC(=O)N[C@@H](C)C(=O)N[C@@H](CCC(N)=O)C(N)=O` [dN1], the EC50 worked out at 21.4 ± 5.54 nM on human GALR2 and 38.9 ± 8 nM on human GALR3. Moreover, in data set [1], the “Half-life activity (h) in FBS” value is 10.3 ± 0.3 ^a h.

On to `CSCC[C@H](NC(=O)[C@H](C)NC(=O)[C@H](CCC(N)=O)NC(=O)[C@@H](C)NC(=O)[C@@H](NC(=O)[C@H](Cc1c[nH]c2ccccc12)NC(=O)[C@@H](N)CC(N)=O)[C@@H](C)O)C(=O)N[C@@H](CC(C)C)C(=O)N[C@@H](Cc1ccc(O)cc1)C(=O)N[C@@H](CC(C)C)C(=O)N[C@@H](CCCCN)C(=O)NCC(=O)N[C@@H](C)C(=O)N[C@@H](CCC(N)=O)C(N)=O` [dA4] (H-NWT[dA]QAMLYLKGAQ-NH2), for which the figures for the EC50 on human GALR2 and at human GALR3 were 97.7 ± 18.3 nM and 112 ± 23.1 nM, respectively. The “Half-life activity (h) in FBS” value in data set [1] was 8.7 ± 0.4 ^a h.

`CSCC[C@H](NC(=O)[C@H](C)NC(=O)[C@H](CCC(N)=O)NC(=O)[C@@H]1CCCN1C(=O)[C@@H](NC(=O)[C@H](Cc1c[nH]c2ccccc12)NC(=O)[C@H](CC(N)=O)NC(=O)OCC1c2ccccc2-c2ccccc21)[C@@H](C)O)C(=O)N[C@@H](CC(C)C)C(=O)N[C@@H](Cc1ccc(O)cc1)C(=O)N[C@@H](CC(C)C)C(=O)N[C@@H](CCCCN)C(=O)NCC(=O)N[C@@H](C)C(=O)N[C@@H](CCC(N)=O)C(N)=O` [Fmoc]: the EC50 at human GALR2 was 77.6 ± 16 nM; on human GALR3, 126 ± 25.9 nM. The “Half-life activity (h) in FBS” value in data set [1] is on record as 14.2 ± 0.2 ^a h.

Consider `CSCC[C@H](NC(=O)[C@H](C)NC(=O)[C@H](CCC(N)=O)NC(=O)[C@@H]1CCCN1C(=O)[C@@H](NC(=O)[C@@H](Cc1c[nH]c2ccccc12)NC(=O)[C@@H](N)CC(N)=O)[C@@H](C)O)C(=O)N[C@@H](CC(C)C)C(=O)N[C@@H](Cc1ccc(O)cc1)C(=O)N[C@@H](CC(C)C)C(=O)N[C@@H](CCCCN)C(=O)NCC(=O)N[C@@H](C)C(=O)N[C@@H](CCC(N)=O)C(N)=O` [dW2], for which the values for the EC50 on human GALR2 and at human GALR3 were 100 ± 18.7 nM and 138 ± 23.2 nM, respectively. Moreover, the “Half-life activity (h) in FBS” value in data set [1] was found to be 4.5 ± 0.6 h.

Regarding NWTLQAMLYLKGAQ-NH2 [L4], the EC50 came to 58.9 ± 7.59 nM at human GALR2 and 105 ± 17.6 nM at human GALR3.

Turning to NWTPQAMLYLKGPQ-NH2 [P13], the concentration for a half-maximal effect (EC50) on human GALR2 was found to be 38.9 ± 5.8 nM; at human GALR3, 380 ± 49.1 nM.

For the compound `CSCC[C@H](NC(=O)[C@H](C)NC(=O)[C@H](CCC(N)=O)NC(=O)[C@@H]1CCCN1C(=O)[C@@H](NC(=O)[C@H](Cc1c[nH]c2ccccc12)NC(=O)[C@@H]1CCC(=O)N1)[C@@H](C)O)C(=O)N[C@@H](CC(C)C)C(=O)N[C@@H](Cc1ccc(O)cc1)C(=O)N[C@@H](CC(C)C)C(=O)N[C@@H](CCCCN)C(=O)NCC(=O)N[C@@H](C)C(=O)N[C@@H](CCC(N)=O)C(N)=O` [pQ1] ([pGlu]WTPQAMLYLKGAQ-NH2), the EC50 on human GALR2 amounted to 35 ± 7.82 nM; at human GALR3 it was 61.7 ± 10.4 nM.

For the compound NWTPQAMGYLKGAQ-NH2 [G8], the values for the EC50 on human GALR2 and on human GALR3 were 1020 ± 132 nM and 1230 ± 108 nM, respectively.
